From patent publication US7582428B2, “Methods and compositions for identifying anti-HCV agents” (priority 2003, dated 2009)

Experiments:
NS4B-GFP = NS4B-GFP (Hepatitis C virus genotype 1b, UniProt Q9WMX2); assay type: binding, HCV
GST-NS4B = biological target: T1, GST-NS4B (Hepatitis C virus genotype 1b, UniProt Q9WMX2); experiment: RNA binding assay; design: species or system HCV; conditions: 5 mM nucleotide; compared with GTP-γ-S
T1 construct: wild type NS4B and the four NBM mutants were fused in frame with N-terminal Glutathione-S Transferase (GST) tags and assayed; made in house; host or cells: E. coli BL21 (pDEST15)
T1 sequence (Q9WMX2 1712-1972 limits assumed): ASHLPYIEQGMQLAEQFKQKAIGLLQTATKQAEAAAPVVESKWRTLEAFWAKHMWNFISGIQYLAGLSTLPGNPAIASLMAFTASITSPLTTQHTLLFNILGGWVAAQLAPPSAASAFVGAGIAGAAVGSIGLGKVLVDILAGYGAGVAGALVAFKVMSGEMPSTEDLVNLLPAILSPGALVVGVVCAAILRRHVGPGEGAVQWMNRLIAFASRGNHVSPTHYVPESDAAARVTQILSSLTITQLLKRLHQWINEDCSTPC
Method: RNA binding assay. 1 μg of purified protein was incubated for an hour at 37° C. in a 50 μl reaction mixture containing ^32P-labeled in vitro transcribed HCV RNA (prepared by using Sca I-linearized Bart79I plasmid (wild type HCV replicon (3)) as template, T7 RNA polymerase, and Riboprobe®/Promega, according to the manufacturer's protocol), binding buffer (10 mM DTT, 10 mM Na HEPES (pH 7.4), 33 mM NaCl, 0.1 mM EDTA, 10 mM MgCl2) and 5 mM of either GTP-γ-S or GDP (Sigma). 50 μl of tRNA pre-coated glutathione-agarose beads (Sigma) were then added, followed by 1 hour incubation at 4° C. to allow binding of GST to the beads. Samples were then washed three times in the binding buffer (in the absence of nucleotides). Aliquots were finally subjected to liquid scintillation counting for measuring bound RNA. Control incubations performed with reaction mixture prepared as above but with omission of T7 RNA polymerase were run in parallel and used for background subtraction.

## [N-]=[N+]=Nc1ccc(NP(=O)(O)OP(=O)(O)OP(=O)(O)OC[C@H]2O[C@@H](n3cnc4c(N)ncnc43)[C@H](O)[C@@H]2O)cc1 [ATP, ATP-γ4-azidoanilide]
NS4B-GFP
  labeling of NS4B-GFP by 32P-labeled photoactivatable nucleotide: significantly less efficient than GTP binding

## Nc1nc2c(ncn2[C@@H]2O[C@H](COP(=O)(O)OP(=O)(O)O)[C@@H](O)[C@H]2O)c(=O)[nH]1 [GDP]
GST-NS4B
  HCV RNA binding of GST-NS4B in the presence of guanyl nucleotide: dramatically increased

## [N-]=[N+]=Nc1ccc(NP(=O)(O)OP(=O)(O)OP(=O)(O)OC[C@H]2O[C@@H](n3cnc4c(=O)[nH]c(N)nc43)[C@H](O)[C@@H]2O)cc1 [GTP, GTP-γ-4-azidoanilide]
NS4B-GFP
  labeling of NS4B-GFP by 32P-labeled photoactivatable nucleotide: specifically labeled

## Nc1nc2c(ncn2[C@@H]2O[C@H](COP(=O)(O)OP(=O)(O)OP(O)(O)=S)[C@@H](O)[C@H]2O)c(=O)[nH]1 [GTPγS]
NS4B-GFP
  binding of labeled GTP in the presence of cold competitor nucleotide: progressively decreased
